According to US10640547B2, “Immunotherapy against melanoma and other cancers” (IMMATICS BIOTECHNOLOGIES GMBH, priority 2016, dated 2020):

How the values were obtained:
CD8+ T cells = assay: In vitro immunogenicity: T-cell priming with artificial APCs loaded with peptide/MHC and anti-CD28, pMHC multimer readout; type: cell-based, human; conditions: for Wells positive [%]: Table 10B, HLA-A*02 restricted peptides, percentage of positive wells among evaluable; for Donors (in vitro immunogenicity) / Wells (in vitro immunogenicity): Table 10A, HLA class I peptides
Description: In order to obtain information regarding the immunogenicity of the TUMAPs of the present invention, the inventors performed investigations using an in vitro T-cell priming assay based on repeated stimulations of CD8+ T cells with artificial antigen presenting cells (aAPCs) loaded with peptide/MHC complexes and anti-CD28 antibody.
In order to perform in vitro stimulations by artificial antigen presenting cells loaded with peptide-MHC complex (pMHC) and anti-CD28 antibody, the inventors first isolated CD8+ T cells from fresh HLA-A*02 leukapheresis products via positive selection using CD8 microbeads (Miltenyi Biotec, Bergisch-Gladbach, Germany) of healthy donors obtained from the University clinics Mannheim, Germany, after informed consent.
PBMCs and isolated CD8+ lymphocytes were incubated in T-cell medium (TCM) until use consisting of RPMI-Glutamax (Invitrogen, Karlsruhe, Germany) supplemented with 10% heat inactivated human AB serum (PAN-Biotech, Aidenbach, Germany), 100 U/ml Penicillin/100 μg/ml Streptomycin (Cambrex, Cologne, Germany), 1 mM sodium pyruvate (CC Pro, Oberdorla, Germany), 20 μg/ml Gentamycin (Cambrex). 2.5 ng/ml IL-7 (PromoCell, Heidelberg, Germany) and 10 U/ml IL-2 (Novartis Pharma, Nürnberg, Germany) were also added to the TCM at this step.
Generation of pMHC/anti-CD28 coated beads, T-cell stimulations and readout was performed in a highly defined in vitro system using four different pMHC molecules per stimulation condition and 8 different pMHC molecules per readout condition.
The purified co-stimulatory mouse IgG2a anti human CD28 Ab 9.3 (Jung et al., 1987) was chemically biotinylated using Sulfo-N-hydroxysuccinimidobiotin as recommended by the manufacturer (Perbio, Bonn, Germany). Beads used were 5.6 μm diameter streptavidin coated polystyrene particles (Bangs Laboratories, Illinois, USA).
800.000 beads/200 μl were coated in 96-well plates in the presence of 4×12.5 ng different biotin-pMHC, washed and 600 ng biotin anti-CD28 were added subsequently in a volume of 200 μl. Stimulations were initiated in 96-well plates by co-incubating 1×10^6 CD8+ T cells with 2×10^5 washed coated beads in 200 μl TCM supplemented with 5 ng/ml IL-12 (PromoCell) for 3 days at 37° C. Half of the medium was then exchanged by fresh TCM supplemented with 80 U/ml IL-2 and incubating was continued for 4 days at 37° C. This stimulation cycle was performed for a total of three times. For the pMHC multimer readout using 8 different pMHC molecules per condition, a two-dimensional combinatorial coding approach was used as previously described (Andersen et al., 2012) with minor modifications encompassing coupling to 5 different fluorochromes. Finally, multimeric analyses were performed by staining the cells with Live/dead near IR dye (Invitrogen, Karlsruhe, Germany), CD8-FITC antibody clone SK1 (BD, Heidelberg, Germany) and fluorescent pMHC multimers. For analysis, a BD LSRII SORP cytometer equipped with appropriate lasers and filters was used. Peptide specific cells were calculated as percentage of total CD8+ cells. Evaluation of multimeric analysis was done using the FlowJo software (Tree Star, Oregon, USA). In vitro priming of specific multimer+CD8+ lymphocytes was detected by comparing to negative control stimulations.

HLA-A*02:01 = HLA-A*02:01 (Homo sapiens, UniProt P04439, D140Y/D185E/D98H/E176V/E277Q/G131W/G231S/I119V/I121R/I166T/I218V/L300P/L318F/N151K/N90K/P208A/P217A/Q86G/Q94H/R138H/R169H/T345S); assay: MHC binding assay (UV-ligand exchange, β2m ELISA); conditions: MHC class I binding score; binding to HLA-A*02:01 ranged by peptide exchange yield (UV-ligand exchange, β2m ELISA)
In short: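 UV-cleavable peptide in HLA monomers exchanged for test peptide by UV irradiation; exchange yield measured by streptavidin-capture ELISA with HRP anti-β2m (TMB, 450 nm) on 100-fold diluted complexes. Quantified against refolded HLA-A*02:01/MLA-001 standards (15-500 ng/ml).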

| Substance | Peptide exchange (HLA-A*02:01) | Wells positive [%] (CD8+ T cells) | Donors (in vitro immunogenicity) (CD8+ T cells) | Wells (in vitro immunogenicity) (CD8+ T cells) |
| --- | --- | --- | --- | --- |
| 3 (VLFKDPVSV; listed as Homo sapiens) [compound 3] | ++++ (>75% = ++++) | + (<20% = +) | – | – |
| 8 (SIIPYLLEA; listed as Homo sapiens) [compound 8] | ++++ (>75% = ++++) | ++ (20%-49% = ++) | – | – |
| 12 (RLDDKTTNV; listed as Homo sapiens) [compound 12] | +++ (>50 = +++) | ++ (20%-49% = ++) | – | – |
| 14 (VLYEMLYGL; listed as Homo sapiens) [compound 14] | ++++ (>75% = ++++) | +++ (50%-69% = +++) | – | – |
| 15 (VLYDPVVGC; listed as Homo sapiens) [compound 15] | ++++ (>75% = ++++) | + (<20% = +) | – | – |
| 18 (SLADVVDTL; listed as Homo sapiens) [compound 18] | ++++ (>75% = ++++) | + (<20% = +) | – | – |
| 20 (VISPHGIASV; listed as Homo sapiens) [compound 20] | ++++ (>75% = ++++) | ++ (20%-49% = ++) | – | – |
| 21 (FMYNFQLVTL; listed as Homo sapiens) [compound 21] | ++ (>20% = ++) | + (<20% = +) | – | – |
| 33 (SLYSYFQKV; listed as Homo sapiens) [compound 33] | ++++ (>75% = ++++) | ++++ (≥70% = ++++) | – | – |
| 116 (LMDETMKEL; listed as Homo sapiens) [compound 116] | ++++ (>75% = ++++) | + (<20% = +) | – | – |
| 121 (FLEDLVPYL; listed as Homo sapiens) [compound 121] | ++++ (>75% = ++++) | +++ (50%-69% = +++) | – | – |
| 191 (YLDKMNNNI; listed as Homo sapiens) [compound 191] | ++++ (>75% = ++++) | + (<20% = +) | – | – |
| 192 (KLFTQIFGV; listed as Homo sapiens) [compound 192] | ++++ (>75% = ++++) | + (<20% = +) | – | – |
| 211 (FLPFLTTEV; listed as Homo sapiens) [compound 211] | ++++ (>75% = ++++) | + (<20% = +) | – | – |
| 310 (ALASVIKEL; listed as Homo sapiens) [compound 310] | – | – | ++ (20%-49% = ++) | + (<20% = +) |
| 315 (KLSWDLIYL; listed as Homo sapiens) [compound 315] | – | – | ++++ (≥70% = ++++) | ++ (20%-49% = ++) |
| 318 (SIIEYLPTL; listed as Homo sapiens) [compound 318] | – | – | ++++ (≥70% = ++++) | + (<20% = +) |
| 320 (KIIGIMEEV; listed as Homo sapiens) [compound 320] | – | – | ++++ (≥70% = ++++) | ++++ (≥70% = ++++) |
| 321 (YLPTFFLTV; listed as Homo sapiens) [compound 321] | – | – | +++ (50%-69% = +++) | ++ (20%-49% = ++) |
| 322 (SLHFLILYV; listed as Homo sapiens) [compound 322] | – | – | +++ (50%-69% = +++) | ++ (20%-49% = ++) |
| 323 (VVDKTLLLV; listed as Homo sapiens) [compound 323] | – | – | ++++ (≥70% = ++++) | +++ (50%-69% = +++) |
| 326 (ALSGTLSGV; listed as Homo sapiens) [compound 326] | – | – | ++++ (≥70% = ++++) | + (<20% = +) |
| 328 (SLSQELVGV; listed as Homo sapiens) [compound 328] | – | – | ++ (20%-49% = ++) | + (<20% = +) |
| 332 (AVVEFLTSV; listed as Homo sapiens) [compound 332] | – | – | ++ (20%-49% = ++) | + (<20% = +) |
| 336 (YVDPVITSI; listed as Homo sapiens) [compound 336] | – | – | ++++ (≥70% = ++++) | ++ (20%-49% = ++) |

The next lines start with results.

| Peptide exchange (HLA-A*02:01) | Substance | Wells positive [%] (CD8+ T cells) | Donors (in vitro immunogenicity) (CD8+ T cells) | Wells (in vitro immunogenicity) (CD8+ T cells) |
| --- | --- | --- | --- | --- |
| ++++ (>75% = ++++) | 4 (KTWDQVPFSV; listed as Homo sapiens) [compound 4] | + (<20% = +) | – | – |
| ++++ (>75% = ++++) | 9 (SLAGLVLYV; listed as Homo sapiens) [compound 9] | ++ (20%-49% = ++) | – | – |
| ++++ (>75% = ++++) | 10 (KMTQYITEL; listed as Homo sapiens) [compound 10] | ++ (20%-49% = ++) | – | – |
| ++++ (>75% = ++++) | 11 (TLIELLLPKL; listed as Homo sapiens) [compound 11] | + (<20% = +) | – | – |
| ++++ (>75% = ++++) | 13 (IQSETTVTV; listed as Homo sapiens) [compound 13] | ++ (20%-49% = ++) | – | – |
| ++++ (>75% = ++++) | 16 (GLFPSNFVTA; listed as Homo sapiens) [compound 16] | + (<20% = +) | – | – |
| ++++ (>75% = ++++) | 17 (GVVHGVATV; listed as Homo sapiens) [compound 17] | + (<20% = +) | – | – |
| ++++ (>75% = ++++) | 31 (FLPRKFPSL; listed as Homo sapiens) [compound 31] | ++ (20%-49% = ++) | – | – |
| ++++ (>75% = ++++) | 34 (YLINFEIRSL; listed as Homo sapiens) [compound 34] | + (<20% = +) | – | – |
| +++ (>50 = +++) | 128 (ALFPGDVDRL; listed as Homo sapiens) [compound 128] | + (<20% = +) | – | – |
| +++ (>50 = +++) | 133 (ALDPAYTTL; listed as Homo sapiens) [compound 133] | + (<20% = +) | – | – |
| ++++ (>75% = ++++) | 155 (GLAGFFASV; listed as Homo sapiens) [compound 155] | ++++ (≥70% = ++++) | – | – |
| ++++ (>75% = ++++) | 189 (KALQFLEEV; listed as Homo sapiens) [compound 189] | + (<20% = +) | – | – |
